According to patent publication US11596622B2, “Mazindol treatment for heroin dependence and substance use disorder” (NLS Pharmaceutics AG, priority 2017, dated 2023):

What was measured:
5-HT transporter(h) = target: T1, 5-HT transporter(h) (Homo sapiens, UniProt P31645); assay: Radioligand binding, 5-HT transporter (Eurofins CEREP); settings: 1.0 × 10^−05 M; antagonist radioligand
T1 construct: Eurofins CEREP
Description: (§1) Table A discloses mazindol and Met tested at […] and the compound binding calculated as a percent inhibition of the binding of a radioactively labeled ligand specific for each target (Eurofins CEREP, France).
(§2) An inhibition or stimulation of more than 50% is considered a significant effect of the test compounds. Fifty percent is a common cut-off for further investigation (i.e. determination of IC50 or EC50 values from concentration-response curves).
(§3) The results are expressed as a percent of control specific binding obtained in the presence of the test compounds:
(§4) [formula] and as a percent inhibition of control specific binding obtained in the presence of the test compounds: […]

5-HT1A(h) = target: T2, 5-HT1A(h) (Homo sapiens, UniProt P08908); assay: Radioligand binding, 5-HT1A (Eurofins CEREP); settings: 1.0 × 10^−05 M; agonist radioligand
T2 construct: Eurofins CEREP
T2 sequence (P08908 1-422): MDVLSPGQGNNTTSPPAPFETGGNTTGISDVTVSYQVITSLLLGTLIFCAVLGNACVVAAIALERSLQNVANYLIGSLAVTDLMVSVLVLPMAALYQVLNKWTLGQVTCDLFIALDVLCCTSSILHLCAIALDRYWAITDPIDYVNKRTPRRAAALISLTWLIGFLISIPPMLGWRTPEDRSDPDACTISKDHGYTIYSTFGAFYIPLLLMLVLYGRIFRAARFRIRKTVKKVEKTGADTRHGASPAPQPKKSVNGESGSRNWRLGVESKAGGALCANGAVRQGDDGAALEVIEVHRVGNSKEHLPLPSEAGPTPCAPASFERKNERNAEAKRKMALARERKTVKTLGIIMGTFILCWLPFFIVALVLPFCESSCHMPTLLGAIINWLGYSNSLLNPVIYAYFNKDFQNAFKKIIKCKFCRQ
Description: as §1, §2, §3, §4

Dopamine transporter(h) = target: T3, Dopamine transporter(h) (Homo sapiens, UniProt Q01959); assay: Radioligand binding, dopamine transporter (Eurofins CEREP); settings: 1.0 × 10^−05 M; antagonist radioligand
T3 construct: Eurofins CEREP
Description: as §1, §2, §3, §4

H1(h) = target: T4, H1(h) (Homo sapiens, UniProt P35367); assay: Radioligand binding, H1 (Eurofins CEREP); settings: 1.0 × 10^−05 M; antagonist radioligand
T4 construct: Eurofins CEREP
Description: as §1
as §2, with “curves). Tables B and C display the binding profiles for Mazindol and Met.” for “curves).”
as §3, §4

M1(h) = target: T5, M1(h) (Homo sapiens, UniProt P11229); assay: Radioligand binding, M1 (Eurofins CEREP); settings: 1.0 × 10^−05 M; antagonist radioligand
T5 construct: Eurofins CEREP
T5 sequence (P11229 1-460): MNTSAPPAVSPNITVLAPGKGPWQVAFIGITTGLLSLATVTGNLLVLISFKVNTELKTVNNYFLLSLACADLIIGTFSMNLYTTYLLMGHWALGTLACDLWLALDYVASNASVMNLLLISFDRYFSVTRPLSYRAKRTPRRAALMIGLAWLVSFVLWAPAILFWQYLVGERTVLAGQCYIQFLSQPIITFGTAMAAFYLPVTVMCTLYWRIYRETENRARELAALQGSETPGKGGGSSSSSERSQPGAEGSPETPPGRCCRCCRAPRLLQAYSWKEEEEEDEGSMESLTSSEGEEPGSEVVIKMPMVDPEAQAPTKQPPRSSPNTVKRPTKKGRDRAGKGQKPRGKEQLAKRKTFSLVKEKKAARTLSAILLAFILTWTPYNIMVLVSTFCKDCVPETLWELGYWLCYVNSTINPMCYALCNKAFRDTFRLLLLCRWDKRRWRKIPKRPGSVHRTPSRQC
Description: as §1
as §2, with “curves). Tables B and C display the binding profiles for Mazindol and Met.” for “curves).”
as §3, §4

μ (MOP) (h) = target: T6, μ (MOP) (h) (Homo sapiens, UniProt P35372); assay: Radioligand binding, μ opioid receptor (Eurofins CEREP)
T6 construct: Eurofins CEREP
Description: as §1
as §2, with “curves). Tables B and C display the binding profiles for Mazindol and Met.” for “curves).”
as §3, §4

[1] = target: T7, Norepinephrine transporter (h) (Homo sapiens, UniProt P23975); assay: Radioligand binding, norepinephrine transporter (Eurofins CEREP); settings: 1.0 × 10^−05 M; antagonist radioligand
T7 construct: Eurofins CEREP
Description: as §1
as §2, with “curves). Tables B and C display the binding profiles for Mazindol and Met.” for “curves).”
as §3, §4

k (KOP) = target: T8, k (KOP) (Rattus norvegicus, UniProt P34975); assay: Radioligand binding, κ opioid receptor (Eurofins CEREP)
T8 construct: Eurofins CEREP
Description: as §1
as §2, with “curves). Tables B and C display the binding profiles for Mazindol and Met.” for “curves).”
as §3, §4

C57BL/6J mice = assay: Effect of treatment on the conditioned place preference induced by heroin; assay type: in vivo; settings: for Distance travelled in the drug-paired compartment / Distance travelled in the two compartments (Drug + Vehicle) / Distance travelled in the vehicle-paired compartment / Distance travelled, drug-paired minus vehicle-paired compartment / Time spent in the drug-paired compartment / Time spent in the vehicle-paired compartment / Time spent, drug-paired minus vehicle-paired compartment: mean
Description: Conditioned place preference (CPP) is a widely used procedure for studying the potential addictive effect of drugs. CPP is based upon the tendency of rodents to approach a stimulus that has previously been paired with an incentive state induced by a drug. A drug that induces a CPP may be suspected to present reinforcing effects that could lead to addiction. Numerous addictive drugs, such as opiate agonists or stimulants induce a CPP and a behavioral sensitization.
The effect of mazindol on place preference was examined in C57BL/6J mice using a method similar to the one used by Schlussman et al. (9).
The third experiments consisted in examining the effects of mazindol and D-amphetamine (at doses chosen from results of the first part of the study) on the place preference induced by heroin at a dose chosen from results of the second experiment, which was 1.25 mg/kg. Mazindol (0.125, 0.25 and 0.5 mg/kg) and D-amphetamine (0.5 mg/kg) were tested.
Therefore, it was decided to perform an additional experiment to examine the effects on place preference induced by heroin of mazindol at 1 and 2 mg/kg and of D-amphetamine at 1 mg/kg.
(§5) Following the habituation session (on day 1), animals (N=72) were pseudo-randomly assigned to two groups, a Control group (N=12) and a Heroin group (N=60), in a way that there was no significant difference between the two groups for the total distance travelled in the apparatus and for the percentage of time spent and the percentage distance travelled in the grey compartment and in the striped compartment.
Animals received the following treatments immediately before drug sessions: • Control group: vehicle • Heroin group: heroin (1.25 mg/kg)
(§6) Following the last conditioning session, the Heroin group was pseudo-randomly divided into 5 groups (N=12/group) in a way that there was no significant difference between groups for the total distance travelled in the apparatus and for the percentage of time spent and the percentage distance travelled in the grey compartment and in the striped compartment in habituation session, for the distance travelled in the drug-paired and in the vehicle-paired compartments in conditioning sessions and for the proportion of striped drug-paired compartments.
Animals received the following treatments before preference session: • Control group: vehicle of mazindol, i.p. 60 min before testing. • Hero group: vehicle of mazindol, i.p. 60 min before testing. • Hero-A 0.5 group: D-amphetamine (0.5 mg/kg), i.p. 30 min before testing. • Hero-Mz 0.125 group: mazindol (0.125 mg/kg), i.p. 60 min before testing. • Hero-Mz 0.25 group: mazindol (0.25 mg/kg), i.p. 60 min before testing. • Hero-Mz 0.5 group: mazindol (0.5 mg/kg), i.p. 60 min before testing.
as §5, with “three” for “two”, “(N=12),” for “(N=12) and”, “(N=48) and a Mazindol group (N=12),” for “(N=60),”
Animals received the following treatments before drug sessions: • Control group: vehicle, i.p. immediately before session. • Heroin group: heroin (1.25 mg/kg), i.p. immediately before session. • MAZ 2 group: mazindol (2 mg/kg), i.p. 60 min before session.
as §6, with “into 4” for “into 5”, “there is” for “there was”, “compartments. […]” for “compartments.”

Sprague-Dawley rats = assay: Naloxone precipitated withdrawal syndrome of heroin; assay type: in vivo
Description: The abrupt cessation of chronic opiate use results in a well characterized withdrawal syndrome with symptoms that include pain sensitivity, dysphoria, irritability, restlessness, insomnia, diarrhea and hyperventilation. In the present model, the naloxone-precipitated withdrawal syndrome is measured in rodents. Animals are chronically treated with a drug, e.g. morphine or heroin. Opiate withdrawal syndrome is elicited by an acute injection of the opiate antagonist Naloxone.
The effect of mazindol on heroin withdrawal syndrome elicited by naloxone was examined in Sprague-Dawley rats using a method similar to the one used by Jiang et al. (10),
Animals were subdivided into two groups. One group received heroin two i.p. injections/day for 12 consecutive days and a single injection on the 13th day (total: 25 injections) as exposed in Table 3 group received saline instead of heroin following the same protocol.
On day 13, animals received treatments and were tested according to the following time schedule: • T=0: i.p. injection of heroin (15 mg/kg) or vehicle. • T=2.5 h: animals individually placed in a transparent Plexiglas observation boxes (40×40×40 cm). • T=3.5 h: i.p. injection of treatment (see below). • T=4 h: i.p. injection of naloxone (5 mg/kg), start of test: observation of withdrawal symptoms as indicated in Table 4. • T=5 h: end of test, animals placed back into their home cages.
Animals received the following treatments at T 3.5 h (i.e. 30 min before injection of naloxone and observation of symptoms): • 1) Animals treated with saline during the intoxication period (days 1-12) and at T0 on day 13: • Saline group (N=8): saline (0.9% NaCl). • 2) Animals treated with […] during the intoxication period (days 1-12) and at T0 on day 13: • Hero group (N=14): saline (0.9% NaCl). • Amph 1 group (N=4): D-amphetamine (1 mg/kg). • Maz 0.125 group (N=5): mazindol (0.125 mg/kg). • Maz 0.25 group (N=6): mazindol (0.25 mg/kg). • Maz 0.5 group (N=6): mazindol (0.5 mg/kg). • Maz 1 group (N=6): mazindol (1 mg/kg). • Maz 2 group (N=5): mazindol (2 mg/kg).
A weighting factor was ascribed for each sign from which a score was calculated.
Examples: • Body weight before naloxone injection=241 g; after naloxone injection=236 g: • Weight loss score=2=100×(241−236)/241 • Number of escape attempts=8: • Score for escape attempts=2 • Profuse salivation present: • Score for profuse salivation
A global withdrawal score was then calculated: • Global score=the sum of the scores

[2] = 1.0 × 10^−05 M, agonist radioligand
[3] = Hero-A 0.5: heroin 1.25 mg/kg conditioning, D-amphetamine 0.5 mg/kg i.p. 30 min before preference session
[4] = Hero-A 1: heroin 1.25 mg/kg conditioning, D-amphetamine 1 mg/kg i.p. 30 min before preference session
[5] = Amph 1: heroin-treated rats, D-amphetamine 1 mg/kg i.p. 30 min before naloxone 5 mg/kg, mean

T6 sequence (P35372 whole entry): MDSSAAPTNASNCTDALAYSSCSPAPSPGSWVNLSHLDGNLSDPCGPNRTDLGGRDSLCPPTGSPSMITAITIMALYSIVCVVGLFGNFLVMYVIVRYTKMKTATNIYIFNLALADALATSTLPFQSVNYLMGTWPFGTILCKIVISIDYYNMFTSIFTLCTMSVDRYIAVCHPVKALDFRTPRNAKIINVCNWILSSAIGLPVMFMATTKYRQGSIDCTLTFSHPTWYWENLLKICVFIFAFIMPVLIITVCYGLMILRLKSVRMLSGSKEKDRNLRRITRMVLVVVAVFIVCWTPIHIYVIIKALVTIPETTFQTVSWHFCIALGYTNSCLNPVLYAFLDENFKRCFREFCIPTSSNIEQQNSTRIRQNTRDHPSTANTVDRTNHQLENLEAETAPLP
T8 sequence (P34975 whole entry): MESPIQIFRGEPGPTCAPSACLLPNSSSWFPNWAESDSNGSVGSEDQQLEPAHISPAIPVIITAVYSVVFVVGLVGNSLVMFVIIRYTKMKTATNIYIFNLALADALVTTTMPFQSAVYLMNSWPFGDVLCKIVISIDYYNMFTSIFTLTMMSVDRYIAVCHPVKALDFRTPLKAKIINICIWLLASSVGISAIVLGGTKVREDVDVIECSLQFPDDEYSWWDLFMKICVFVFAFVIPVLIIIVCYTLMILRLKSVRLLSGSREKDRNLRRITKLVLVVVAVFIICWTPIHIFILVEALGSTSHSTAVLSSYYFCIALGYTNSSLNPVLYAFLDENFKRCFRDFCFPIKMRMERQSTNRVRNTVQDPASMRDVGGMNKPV
T3 sequence (Q01959 whole entry): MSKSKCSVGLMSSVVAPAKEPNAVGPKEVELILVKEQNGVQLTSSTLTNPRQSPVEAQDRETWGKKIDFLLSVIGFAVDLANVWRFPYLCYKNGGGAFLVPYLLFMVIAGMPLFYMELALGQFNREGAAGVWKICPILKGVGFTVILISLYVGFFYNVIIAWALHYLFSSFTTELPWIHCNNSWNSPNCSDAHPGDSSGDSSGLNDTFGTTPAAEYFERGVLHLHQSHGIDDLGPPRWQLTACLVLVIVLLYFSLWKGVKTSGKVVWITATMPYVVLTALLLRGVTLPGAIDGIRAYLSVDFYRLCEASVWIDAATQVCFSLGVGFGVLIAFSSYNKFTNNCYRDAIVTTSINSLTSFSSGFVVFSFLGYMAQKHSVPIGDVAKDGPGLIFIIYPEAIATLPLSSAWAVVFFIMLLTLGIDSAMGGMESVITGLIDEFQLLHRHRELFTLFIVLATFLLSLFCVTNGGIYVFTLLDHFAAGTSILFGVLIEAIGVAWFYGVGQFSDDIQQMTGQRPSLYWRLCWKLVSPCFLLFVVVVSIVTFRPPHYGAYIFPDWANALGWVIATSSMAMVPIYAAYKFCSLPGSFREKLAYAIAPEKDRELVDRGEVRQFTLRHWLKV
T7 sequence (P23975 whole entry): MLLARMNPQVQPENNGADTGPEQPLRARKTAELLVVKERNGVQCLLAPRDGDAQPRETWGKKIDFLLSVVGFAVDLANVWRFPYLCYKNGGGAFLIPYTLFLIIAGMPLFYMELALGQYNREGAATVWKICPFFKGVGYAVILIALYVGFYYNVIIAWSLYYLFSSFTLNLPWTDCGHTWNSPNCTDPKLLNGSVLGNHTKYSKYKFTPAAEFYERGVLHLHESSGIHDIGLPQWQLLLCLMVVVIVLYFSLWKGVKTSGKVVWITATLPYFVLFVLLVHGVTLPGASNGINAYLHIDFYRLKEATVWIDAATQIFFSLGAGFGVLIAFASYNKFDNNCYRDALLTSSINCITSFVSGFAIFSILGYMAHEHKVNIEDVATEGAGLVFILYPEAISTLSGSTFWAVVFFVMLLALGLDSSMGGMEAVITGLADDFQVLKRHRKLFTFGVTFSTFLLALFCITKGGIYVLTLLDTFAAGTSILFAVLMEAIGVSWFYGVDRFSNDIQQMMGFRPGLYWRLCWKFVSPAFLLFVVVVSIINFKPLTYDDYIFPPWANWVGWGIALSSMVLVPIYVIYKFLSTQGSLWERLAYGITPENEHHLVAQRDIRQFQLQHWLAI
T4 sequence (P35367 whole entry): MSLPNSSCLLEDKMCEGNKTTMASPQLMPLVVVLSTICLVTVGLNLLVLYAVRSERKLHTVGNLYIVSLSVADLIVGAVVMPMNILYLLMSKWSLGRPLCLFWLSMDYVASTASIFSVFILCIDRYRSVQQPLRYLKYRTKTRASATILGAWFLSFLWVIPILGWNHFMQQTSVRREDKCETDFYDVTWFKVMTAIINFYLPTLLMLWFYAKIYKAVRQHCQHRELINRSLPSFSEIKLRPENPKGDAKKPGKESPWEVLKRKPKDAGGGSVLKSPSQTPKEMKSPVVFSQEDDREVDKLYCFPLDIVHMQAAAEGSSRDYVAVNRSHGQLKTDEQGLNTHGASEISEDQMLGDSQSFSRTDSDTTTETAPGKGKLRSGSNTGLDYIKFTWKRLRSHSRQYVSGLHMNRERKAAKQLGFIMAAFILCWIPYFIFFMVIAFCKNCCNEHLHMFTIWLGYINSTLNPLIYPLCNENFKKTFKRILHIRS
T1 sequence (P31645 whole entry): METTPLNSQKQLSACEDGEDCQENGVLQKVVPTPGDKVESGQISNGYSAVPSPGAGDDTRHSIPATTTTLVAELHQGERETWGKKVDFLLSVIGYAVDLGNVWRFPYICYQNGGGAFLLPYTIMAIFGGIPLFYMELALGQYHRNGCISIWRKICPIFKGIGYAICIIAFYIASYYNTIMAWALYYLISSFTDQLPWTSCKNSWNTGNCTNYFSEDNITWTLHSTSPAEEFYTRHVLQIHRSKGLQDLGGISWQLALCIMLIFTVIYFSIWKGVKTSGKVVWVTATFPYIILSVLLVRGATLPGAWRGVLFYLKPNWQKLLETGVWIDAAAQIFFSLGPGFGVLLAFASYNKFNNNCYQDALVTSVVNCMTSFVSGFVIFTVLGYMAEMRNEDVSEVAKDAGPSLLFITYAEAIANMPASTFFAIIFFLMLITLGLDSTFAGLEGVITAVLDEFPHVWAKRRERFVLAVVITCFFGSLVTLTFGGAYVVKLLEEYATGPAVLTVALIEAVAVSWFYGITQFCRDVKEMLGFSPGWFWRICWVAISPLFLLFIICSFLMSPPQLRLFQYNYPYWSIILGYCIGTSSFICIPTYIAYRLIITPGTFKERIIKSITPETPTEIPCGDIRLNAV

## NCCN1C(=O)c2ccccc2C1(O)c1ccc(Cl)cc1 (stereo not drawn) [Mazindol Metabolite, 2-(2-Aminoethyl)-3-(p-chlorophenyl)-3-hydroxyphthalimidine]
5-HT transporter(h)
  percent inhibition of the binding of a radioactively labeled ligand: 98.5%
5-HT1A(h)
  percent inhibition of the binding of a radioactively labeled ligand: 86.3%
Dopamine transporter(h)
  percent inhibition of the binding of a radioactively labeled ligand: 101%
H1(h)
  percent inhibition of the binding of a radioactively labeled ligand: 75.5%
M1(h)
  percent inhibition of the binding of a radioactively labeled ligand: 50.4%
μ (MOP) (h); [2]
  percent inhibition of the binding of a radioactively labeled ligand: 87.9%
μ (MOP) (h); compared with amphetamines
  affinity for μ-opioid receptors: higher affinity
[1]
  percent inhibition of the binding of a radioactively labeled ligand: 100.2%
K (KOP)
  affinity for κ-opioid receptors: modest affinity
K (KOP); [2]
  percent inhibition of the binding of a radioactively labeled ligand: 53.3%

## C[C@H](N)Cc1ccccc1.C[C@H](N)Cc1ccccc1.O=S(=O)(O)O [D-amphetamine, D-amphetamine sulfate]
C57BL/6J mice; D-amphetamine 0.5 mg/kg
  effect on the heroin-induced increase of distance travelled in the drug-paired compartment: had no effect
  effect on the heroin-induced increase of time spent in the drug-paired compartment: non-significantly reduced
C57BL/6J mice; D-amphetamine 1 mg/kg
  effect on the heroin-induced increases of time spent and distance travelled in the drug-paired compartment: did not modify
C57BL/6J mice; D-amphetamine 0.5, 1 mg/kg i.p. before preference session
  effect on the place preference induced by heroin: do not show a reliable effect
C57BL/6J mice; D-amphetamine 0.5 and 1 mg/kg i.p. before preference session
  total distance travelled in two compartments (FIG. 3): at 0.5 mg/kg, but not at 1 mg/kg decreased the total distance travelled in two compartments
C57BL/6J mice; [3]
  Distance travelled in the drug-paired compartment: 6797.2 cm
  Distance travelled in the two compartments (Drug + Vehicle): 11379.9 cm
  Distance travelled in the vehicle-paired compartment: 4582.7 cm
  Distance travelled, drug-paired minus vehicle-paired compartment: 2214.6 cm
  Time spent in the drug-paired compartment: 984.5 s
  Time spent in the vehicle-paired compartment: 815.5 s
  Time spent, drug-paired minus vehicle-paired compartment: 168.9 s
C57BL/6J mice; [4]
  Distance travelled in the drug-paired compartment: 7416.7 cm
  Distance travelled in the two compartments (Drug + Vehicle): 13005.6 cm
  Distance travelled in the vehicle-paired compartment: 5588.9 cm
  Distance travelled, drug-paired minus vehicle-paired compartment: 1827.8 cm
  Time spent in the drug-paired compartment: 1048.3 s
  Time spent in the vehicle-paired compartment: 751.7 s
  Time spent, drug-paired minus vehicle-paired compartment: 296.5 s
Sprague-Dawley rats; [5]
  Abdominal constrictions score (Abd C): 0.0
  Abnormal posture score (Ab P): 0.0
  Chromodacryorrhea score (Chr): 5.0
  Diarrhea score (Diarr): 2.0
  Erection or ejaculation score (Er Ej): 0.0
  Escape attempts score (Esc A): 1.8
  Facial fasciculation or teeth chattering score (F F T C): 2.0
  Global Score: 22.5
  Irritability score (Irrit): 0.0
  Profuse salivation score (Pr Sal): 5.3
  Ptosis score (Ptos): 0.0
  Swallowing movements score (Sw M): 1.0
  Weight loss score (W Los): 2.0
  Wet dog shakes score (W D S): 3.5
Sprague-Dawley rats; D-amphetamine 1 mg/kg
  effect on naloxone precipitated withdrawal symptoms of heroin: did not reduce the withdrawal symptoms of heroin
Sprague-Dawley rats; D-amphetamine 1 mg/kg, increase not significant
  effect on chromodacryorrhea: tended to increase
